# Data taken from PMC8744235 (Journal of Biomedical Science, 2022).
# Several values for one entry are separate records, joined by “and”; a condition that tells them apart may be missing. Equal entries are not always repeated. Structures can show the parent of a compound that is named as a salt. Where two headings read alike, the source gives them in different places.
# Assays:
# colonic mucosa = system: colonic mucosa; set-up: method as in PMID 32014250; conditions: cited from earlier work
# SMCT1 = conditions: inhibition of uptake of SMCT1 substrate nicotinate, mouse colon cell lines; cited from earlier work
# [1] = system: [^3H]VPA uptake in MT (hSOD1^G93A) NSC-34 cell line; conditions: for [^3H]VPA uptake (% of control): 10 s, 37 °C
# [2] = system: [^3H]VPA uptake in WT (hSOD1^WT) NSC-34 cell line; assay: Inhibition of [3H]VPA uptake by substrates/inhibitors/drugs, WT cell line; assay type: cell-based; conditions: for [^3H]VPA uptake (% of control): 10 s, 37 °C
# [3] = system: [^3H]VPA uptake in MT (hSOD1^G93A) NSC-34 cell line; assay: cells
# FRTL-5 cells = conditions: inhibition of GHB uptake by FRTL-5 cells; cited from earlier work
# NSC-34 WT cell line = assay: Cell viability (MTT) assay, glutamate- and H2O2-induced neurotoxicity, WT; conditions: 24 h
# Description: (§1) Then, an MTT [3‐(4,5‐[…]‐2‐yl)‐2,5‐diphenyltetrazoliumbromide] solution (5 mg/mL) was added and the cells were stored in the dark at 37 °C until the appearance of a purple precipitate (formazan). Then, DMSO was added and the cells were left for 15 min; afterwards, the absorbance was measured using an Infinite F200 PRO microplate reader (Tecan Trading AG, Männedorf, Switzerland) at […]. Images were captured using an EVOS XL Core Cell Imaging System (Life technologies, Thermo Fisher Scientific Korea Co., Ltd.).
# [4] = system: NSC-34 wild-type (NSC-34/hSOD1^WT) cell line; assay: [3H]VPA cellular uptake and kinetic parameters, WT cell line; assay type: in vitro ADME
# Excerpt: (§2) To maintain the sodium-free environment in the ECF buffer, NaCl and NaHCO3 was replaced with […] and N-methyl-D-glucamine (NMG), respectively. […] Similarly, to observe the effect of pH, the ECF buffer was adjusted to pH 6.0-7.4 using HCl or NaOH following a previously described experimental procedure. […] For the Eadie-Hofstee plot, the saturable components were plotted by subtracting the non-saturable uptake from the total uptake rate.
# [5] = system: NSC-34 mutant-type (NSC34/hSOD1^G93A) cell line; assay: [3H]VPA cellular uptake and kinetic parameters, MT ALS cell line; assay type: in vitro ADME
# Excerpt: as §2
# [6] = in the body; cited from earlier work
# NSC-34 MT cell line = assay: Cell viability (MTT) assay, glutamate- and H2O2-induced neurotoxicity, MT; conditions: 24 h
# Description: as §1
# [7] = NSC-34, pH 7.4, read-out: IC50 for [^3H]VPA uptake
# [8] = NSC-34, pH 6, read-out: IC50 for [^3H]VPA uptake
# [9] = VPA 2 mM added to glutamate (2 mM) and H2O2 (300 µM)
# [10] = 5–30 s, pH 6.0–7.4, sodium-free (NMG) buffer
# [11] = high-affinity site, unlabeled VPA 0–10 mM, 10 s, pH 7.4, 37 °C
# [12] = low-affinity site, 10 s, pH 7.4
SMILES,"[^3H]VPA uptake (% of control) ([1]; compound 1 mM, pH 6.0)","[^3H]VPA uptake (% of control) ([1]; compound 10 mM, pH 6.0)","[^3H]VPA uptake (% of control) ([2]; compound 1 mM, pH 6.0)","[^3H]VPA uptake (% of control) ([2]; compound 10 mM, pH 6.0)",also measured
Nc1ccc(O)c(C(=O)O)c1 [5-aminosalicylic acid],–,–,–,–,Km (colonic mucosa): 2400 µM; Ki/IC50 (SMCT1): 2.8 mM
"CC(=O)O [Acetic acid, acetic acid]",40.3 ± 5.0 % of control,15.4 ± 1.4 % of control,54.9 ± 6.7 % of control,24.4 ± 3.0 % of control,–
"N#CC(=Cc1ccc(O)cc1)C(=O)O [CHC, α-cyano-4-hydroxycinnamate]",–,74.6 ± 7.1 % of control,–,67.7 ± 9.0 % of control,–
"O=C(O)CC(O)(CC(=O)O)C(=O)O [Citric acid, citric acid]",–,125 ± 13 % of control,–,113 ± 3 % of control,–
"O=S(=O)(O)c1cc(N=C=S)ccc1C=Cc1ccc(N=C=S)cc1S(=O)(=O)O [DIDS, 4,4′-diisothiocyano-2,2′-stilbenedisulfonic acid]",58.8 ± 4.9 % of control,–,54.8 ± 4.3 % of control,–,depletion in VPA transport ([1]; 1 mM): approximately 40%; depletion in VPA transport ([2]; 1 mM): approximately 40%
"CC1=NN(c2ccccc2)C(=O)C1 [Edaravone, edaravone]",81.0 ± 5.4 % of control,68.6 ± 6.3 % of control,80.3 ± 6.0 % of control,67.3 ± 7.6 % of control,"IC50 [3, 7]: 28.9 mM"
"C[C@]12CC[C@@H]3c4ccc(OS(=O)(=O)O)cc4CC[C@H]3[C@@H]1CCC2=O [Estrone − 3 sulfate, estrone 3-sulfate]",–,58.2 ± 8.5 % of control,–,60.6 ± 8.4 % of control,–
"NS(=O)(=O)c1cc(C(=O)O)c(NCc2ccco2)cc1Cl [Furosemide, furosemide]",61.7 ± 2.2 % of control,–,61.7 ± 6.3 % of control,–,"[^3H]VPA uptake (% of control) ([1]; compound 5 mM, acidic pH): 82.3 ± 7.5 % of control; [^3H]VPA uptake (% of control) ([2]; compound 5 mM, acidic pH): 77.5 ± 4.9 % of control"
CC(C)Cc1ccc(C(C)C(=O)O)cc1 (centres unmarked) [Ibuprofen],61.9 ± 7.5 % of control,33.5 ± 1.0 % of control,64.3 ± 3.6 % of control,22.3 ± 1.5 % of control,"IC50 (FRTL-5 cells): in the micromolar range; IC50 [3, 8]: 6.65 mM; IC50 [3, 7]: 36 mM"
C[C@H](O)C(=O)O [L-lactate],–,–,–,–,IC50 (FRTL-5 cells): in the micromolar range
"Nc1ccc(C(=O)NCC(=O)O)cc1 [PAH, para-aminohippuric acid]",58.7 ± 2.9 % of control,63.5 ± 5.5 % of control,71.0 ± 5.5 % of control,75.8 ± 2.3 % of control,–
"O=C(O)CCCc1ccccc1 [PBA, 4-phenylbutyric acid]",–,56.6 ± 3.0 % of control,–,43.1 ± 2.2 % of control,–
O=C(O)c1ccccc1O [Salicylic acid],78.8 ± 8.6 % of control,31.9 ± 1.6 % of control,64.9 ± 2.0 % of control,17.9 ± 1.5 % of control,"IC50 [3, 8]: 7.36 mM"
"CCCC(CCC)C(=O)O [VPA, Valproic acid]",78.4 ± 1.6 % of control,37.4 ± 4.2 % of control,78.3 ± 4.5 % of control,35.9 ± 5.2 % of control,"neuroprotective effect on cell viability (MTT) (NSC-34 WT cell line; [9]): restored the viability; dependence of [^3H]VPA uptake [4, 10]: time, pH, and sodium dependent; Vmax1 ([4]; high-affinity site, pH 7.4): 0.0083 ± 0.0044 nmol/mg protein/10 s; Km1 [4, 11]: 37.8 ± 3.0 µM; Km2 [4, 12]: 4.59 ± 0.62 mM and 4.588 ± 0.620 mM; Vmax2 ([4]; low-affinity site, pH 7.4): 1.86 ± 0.24 nmol/mg protein/10 s and 1.864 ± 0.244 nmol/mg protein/10 s; dependence of [^3H]VPA uptake [5, 10]: time, pH, and sodium dependent; Vmax1 ([5]; high-affinity site, pH 7.4): 0.0232 ± 0.0007 nmol/mg protein/10 s; Km1 [5, 11]: 19.1 ± 0.7 µM; Km2 [5, 12]: 1.14 ± 0.14 mM and 1.144 ± 0.143 mM; Vmax2 ([5]; low-affinity site, pH 7.4): 0.231 ± 0.015 nmol/mg protein/10 s; half-life [6]: 9 to 16 h; neuroprotective effect on cell viability (MTT) (NSC-34 MT cell line; [9]): restored the viability"
N[C@@H](CCC(=O)O)C(=O)O [glutamate],–,–,–,–,effect of neurotoxic stimulus on cell viability (MTT) (NSC-34 WT cell line; glutamate 2 mM or H2O2 300 µM): significantly decreased the viability; effect of neurotoxic stimulus on cell viability (MTT) (NSC-34 MT cell line; glutamate 2 mM or H2O2 300 µM): significantly decreased the viability
CC(C(=O)O)c1cccc(C(=O)c2ccccc2)c1 (centres unmarked) [ketoprofen],–,–,–,–,IC50 (FRTL-5 cells): in the micromolar range
CCCN(CCC)S(=O)(=O)c1ccc(C(=O)O)cc1 [probenecid],–,–,–,–,IC50 (FRTL-5 cells): in the micromolar range
